This is an account of results in ChEMBL document CHEMBL1255360, “Daptomycin exerts bactericidal activity without lysis of Staphylococcus aureus” (2008).

≈ marks a conversion by molar mass, not a printed value. Calls of active or inactive are those of the source. The rule behind the calls is not given here.

Assay [1] relates to Staphylococcus aureus. The experiment in a line: Bactericidal activity against Staphylococcus aureus ATCC 29213 assessed as cell lysis at 4 ug/ml after 120 mins. It counts as functional, organism-based.
For assay [2], the system named is Staphylococcus aureus. The experiment in a line: Bactericidal activity against Staphylococcus aureus ATCC 29213 assessed as calcein release at 4 ug/ml. It counts as functional, organism-based.
Assay [3] deals with Staphylococcus aureus. The experiment in a line: Bactericidal activity against Staphylococcus aureus ATCC 29213 assessed as cell lysis at 4 ug/ml after 60 mins by transmission electron microscopy. The format is functional, organism-based.
Assay [4] deals with Staphylococcus aureus. The experiment in a line: microbe, parasite or virus in culture. The following applies: ATCC 29213.
Description: Antimicrobial activity against Staphylococcus aureus ATCC 29213
In assay [5] the test system is Staphylococcus aureus. The experiment in a line: Bactericidal activity against Staphylococcus aureus ATCC 29213 assessed as membrane permeability at 4 ug/ml by ToPro3 dye based assay. The format is functional, organism-based.
Assay [6] relates to Staphylococcus aureus. The experiment in a line: Bactericidal activity against Staphylococcus aureus ATCC 29213 assessed as cell lysis at MIC after 120 mins. The format is functional.
The subject of assay [7] is Staphylococcus aureus. The experiment in a line: Bactericidal activity against Staphylococcus aureus ATCC 29213 assessed as decrease in cell viability at MIC after 120 mins. It counts as functional.
For assay [8], the system named is Staphylococcus aureus. The experiment in a line: Bactericidal activity against Staphylococcus aureus ATCC 29213 assessed as altered cell morphology at 4 ug/ml after 60 mins by transmission electron microscopy. It counts as functional.
The test system of assay [9] is Staphylococcus aureus. The experiment in a line: Bactericidal activity against Staphylococcus aureus ATCC 29213 assessed as decrease in cell viability at 4 ug/ml within 120 mins. It counts as functional.

Regarding `CCCCCCCCCC(=O)N[C@@H](Cc1c[nH]c2ccccc12)C(=O)N[C@H](CC(N)=O)C(=O)N[C@@H](CC(=O)O)C(=O)N[C@@H]1C(=O)NCC(=O)N[C@@H](CCCN)C(=O)N[C@@H](CC(=O)O)C(=O)N[C@H](C)C(=O)N[C@@H](CC(=O)O)C(=O)NCC(=O)N[C@H](CO)C(=O)N[C@@H]([C@H](C)CC(=O)O)C(=O)N[C@@H](CC(=O)c2ccccc2N)C(=O)O[C@@H]1C`, the outcome in [1], in [2], in assay [3] and in [5] was inactive. The same molecule had an MIC in [4] of 0.5 mg/L (≈ 0.309 µM). The Activity is 50% in assay [6] and more than 90% in assay [8]. The “fold change (FC)” value in assay [7] was 200; in assay [9] it was more than 1000.
`O=C(O)c1cn(C2CC2)c2cc(N3CCNCC3)c(F)cc2c1=O`: in [5], the result was inactive.
